Assay [1] concerns the target T1, PBCV-1 GTase (Paramecium bursaria Chlorella virus 1, UniProt Q84424). As to the kind of experiment: Inhibition of the first step of the GTase reaction (E-GMP formation). It is filed as biochemical. Also noted: His-tag; made in house. As to conditions: for Effect on radiolabelled EpG signal: unlabelled nucleotide 2 mM, GTase 10 µM. As for the experimental part:
Inhibition of the first step of the GTase reaction was evaluated by carrying out the standard first step GTase reaction in the presence of 0.2 pmol of [α-^32P] GTP and 2 mM of either unlabelled GTP or each unlabelled nucleotide analogue separately. The IC50 of nucleotide analogues was determined by carrying out the standard first step reaction in the presence of 0.2 pmol of [α-^32P] GTP and increasing concentrations of up to 2 mM of each nucleotide analogue. The reactions were stopped by the addition of EDTA to 10 mM and SDS to 1% and analyzed by electrophoresis through a 12.5% polyacrylamide gel containing 0.1% SDS. The radiolabelled proteins were visualized by autoradiography of the gel. Radiolabelled covalent complex formation was quantified by scanning the gel with a PhosphorImager (Amersham Biosciences).

The target in assay [2] is T1, PBCV-1 GTase. As to the kind of experiment: In vitro RNA capping efficiency (nuclease P1 / alkaline phosphatase digestion, TLC). As to conditions: for Relative efficiency of RNA capping, 1st and 2nd steps: nucleotide 2 mM, normalized onto the value obtained with GTP.
Assay [3] deals with T1, PBCV-1 GTase. As to the kind of experiment: Formation of the covalent enzyme-nucleotide intermediate (SDS-PAGE, Coomassie blue). As to conditions: nucleotide analogue 2 mM, magnesium ions 5 mM. The assay is classed as biochemical. Set-up: His-tag; made in house. As for the experimental part: The standard first step reaction was carried out in the presence of each nucleotide analogue (2 mM) in the presence or absence of potassium pyrophosphate (1 mM). The reactions were resolved on SDS-PAGE followed by Coomassie blue staining.

Assay [4] has as its target T1, PBCV-1 GTase. As to the kind of experiment: Transfer of nucleotide analogues onto internally labelled 50 nt RNA (Urea-PAGE). To be noted: 32P-internally labelled RNA.
For assay [5], the target named is T2, eIF4E protein (Mus musculus, UniProt P63073).
T2 construct: His-tag; made in house; host or cells: bacteria
As to the kind of experiment: Binding of free NTP to purified eIF4E (fluorescence saturation isotherm). Also noted: species or system murine. To be noted: 2 µM protein, pH 8.0.
Experimental: The binding of RNAs harboring modified RNA cap structures to the eIF4E protein was evaluated by fluorescence spectroscopy as described previously [23]. Briefly, excitation was performed at a wavelength of 290 nm fluorescence using a Hitachi F-2500 fluorescence spectrophotometer. Background emission was eliminated by subtracting the signal from the buffer containing the RNA substrate. The extent to which the RNA binds to purified eIF4E protein was determined by monitoring the fluorescence emission of a fixed concentration of proteins with and without the appropriate RNA (2 µM).
(B) Increasing amounts of NTP were added to a 2 µM solution of the purified protein in a binding buffer (50 mM Tris/HCl, pH 8.0, and 50 mM KOAc) and following excitation of tryptophan residues at 290 nm the emission spectrum was scanned from 310 to 440 nm. […] The data was fit to a binding curve.

[6] abbreviates: read-out: IC50 for E-GMP formation, 1st step, 0.2 pmol [α-32P] GTP, PBCV-1 GTase 10 µM, analogue up to 2 mM, pH 7.5, 1hr at 30°C.

Read-outs that look alike come from different tables or passages of the source. Some results are limits rather than exact numbers.

The term IC50 denotes the concentration at which inhibition is half-maximal.

T1 sequence (Q84424 whole entry): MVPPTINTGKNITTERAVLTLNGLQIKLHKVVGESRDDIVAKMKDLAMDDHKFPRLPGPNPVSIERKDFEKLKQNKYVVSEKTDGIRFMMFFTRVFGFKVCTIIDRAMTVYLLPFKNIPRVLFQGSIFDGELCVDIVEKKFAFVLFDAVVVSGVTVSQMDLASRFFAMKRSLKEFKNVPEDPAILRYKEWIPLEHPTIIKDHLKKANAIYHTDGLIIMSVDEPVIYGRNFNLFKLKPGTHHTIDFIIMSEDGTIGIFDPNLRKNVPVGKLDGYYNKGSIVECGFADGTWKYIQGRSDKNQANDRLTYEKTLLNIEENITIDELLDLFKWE
T2 sequence (P63073 whole entry): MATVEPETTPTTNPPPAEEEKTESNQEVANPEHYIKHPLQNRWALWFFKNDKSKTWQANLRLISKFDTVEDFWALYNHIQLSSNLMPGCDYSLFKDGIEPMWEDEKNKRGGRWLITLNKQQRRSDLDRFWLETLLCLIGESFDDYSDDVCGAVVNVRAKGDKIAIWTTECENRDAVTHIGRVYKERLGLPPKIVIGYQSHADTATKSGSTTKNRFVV

As to `COc1nc(N)nc2c1ncn2[C@@H]1O[C@H](COP(=O)(O)OP(=O)(O)OP(=O)(O)O)[C@@H](O)[C@H]1O` [A7, O6-Me GTP], the IC50 in assay [1] (setting [6]) was 150 µM. Further, in assay [2], the “Relative efficiency of RNA capping, 1st and 2nd steps” value (shortened to “Relative efficiency of RNA capping”) is reported as 0.48; the “RNA capping (transfer onto RNA) relative to GTP” value was ~ 50%.
`Nc1nc(N)c2ncn([C@@H]3O[C@H](COP(=O)(O)OP(=O)(O)OP(=O)(O)O)[C@@H](O)[C@H]3O)c2n1` [A4, 2-Amino ATP]: the IC50 in assay [1] (setting [6]) is greater than 2000 µM.
With `Cn1c(N)nc2c(ncn2[C@@H]2O[C@H](COP(=O)(O)OP(=O)(O)OP(=O)(O)O)[C@@H](O)[C@H]2O)c1=O` [A1, N1-Me GTP], in assay [3], the “Covalent intermediate: slower migrating species on SDS-PAGE” value is recorded as “appearance of a slower migrating species”. The IC50 in assay [1] (setting [6]) was 80 µM. For the same compound, the “Relative efficiency of RNA capping” value in assay [2] was determined as 1.1.
As for `Nc1nc2c(nc(I)n2[C@@H]2O[C@H](COP(=O)(O)OP(=O)(O)OP(=O)(O)O)[C@@H](O)[C@H]2O)c(=O)[nH]1` [A14, 8-Iodo GTP], in assay [1] (setting [6]), the IC50 was found to be 420 µM. In addition, the “Relative efficiency of RNA capping” value in assay [2] is on record as 1.0.
For `O=P(O)(O)OP(=O)(O)OP(=O)(O)OC[C@H]1O[C@@H](n2cnc3c(Cl)ncnc32)[C@H](O)[C@@H]1O` [A11, 6-Cl purine RTP], the IC50 in assay [1] (setting [6]) was greater than 2000 µM.
For `CSc1ncnc2c1ncn2[C@@H]1O[C@H](COP(=O)(O)OP(=O)(O)OP(=O)(O)O)[C@@H](O)[C@H]1O` [A10, 6-Me thio ITP], the IC50 in assay [1] (setting [6]) came to 1200 µM. Besides, the “Transferability of covalent intermediate onto RNA” value in assay [2] (5’-α terminally labelled RNA, TLC) is recorded as “clearly not transferable onto RNA”.
In the case of `Nc1nc2c(ncn2[C@@H]2O[C@H](COP(=O)(O)OP(=O)(O)OP(=O)(O)O)[C@@H](O)[C@H]2O)c(=O)[nH]1` [GTP, reference compound], the “Formation of capped RNA (slower migrating species)” value in assay [4] is on record as “formation of a slower migrating species corresponding to the capped RNA”. Besides, the “Kd for purified eIF4E” value in assay [5] is on record as “much higher apparent binding constant”. For the same compound, in assay [1], the IC50 was determined as 100 µM and the “Effect on radiolabelled EpG signal” value was “maximum loss of the radiolabelled EpG signal”. The “Fraction of capped RNA over the total transcripts” value in assay [2] (cap donor 2 mM) amounted to 0.35 ±0.05. Further, the “Relative efficiency of RNA capping” value in assay [2] is listed as 1.0.
For the compound `CSc1nc(N)nc2c1ncn2[C@@H]1O[C@H](COP(=O)(O)OP(=O)(O)OP(=O)(O)O)[C@@H](O)[C@H]1O` [A8, 6-Me thio GTP], the IC50 in assay [1] (setting [6]) was 430 µM. Further, the “Relative efficiency of RNA capping” value in assay [2] was determined as 0.07.
Regarding `Nc1nc2c(ccn2[C@@H]2O[C@H](COP(=O)(O)OP(=O)(O)OP(=O)(O)O)[C@@H](O)[C@H]2O)c(=O)[nH]1` [A16, 7-deaza GTP], the IC50 in assay [1] (setting [6]) is greater than 2000 µM.
On to `Nc1ncnc2c1ncn2[C@@H]1O[C@H](COP(=O)(O)OP(=O)(O)OP(=O)(O)O)[C@@H](O)[C@H]1O` [ATP, reference compound], for which, in assay [4], the “Formation of capped RNA (slower migrating species)” value was “no effect”. Moreover, in assay [1] (0.2 pmol [α-32P] GTP, PBCV-1 GTase 10 µM, analogue up to 2 mM, pH 7.5, 1hr at 30°C, read-out: IC50 for E-GMP formation, 1st step), the IC50 was greater than 2000 µM. The “Effect on radiolabelled EpG signal” value in assay [1] is recorded as “no apparent effect”.
In the case of `Nc1nc2c(nc(Br)n2[C@@H]2O[C@H](COP(=O)(O)OP(=O)(O)OP(=O)(O)O)[C@@H](O)[C@H]2O)c(=O)[nH]1` [A13, 8-Bromo GTP], the IC50 in assay [1] (setting [6]) came to 1500 µM. Further, the “Relative efficiency of RNA capping” value in assay [2] was 0.40.
Regarding `Nc1nc(Cl)c2ncn([C@@H]3O[C@H](COP(=O)(O)OP(=O)(O)OP(=O)(O)O)[C@@H](O)[C@H]3O)c2n1` [A5, 2-Amino-6 Cl purine RTP], the IC50 in assay [1] (setting [6]) is 160 µM. Further, in assay [2], the “Relative efficiency of RNA capping” value is on record as 0.08; the “RNA capping (transfer onto RNA) relative to GTP” value was determined as 8%.
As to `O=c1[nH]cnc2c1ncn2[C@@H]1O[C@H](COP(=O)(O)OP(=O)(O)OP(=O)(O)O)[C@@H](O)[C@H]1O` [A2, ITP], the “Formation of capped RNA (slower migrating species)” value in assay [4] was “formation of a slower migrating species corresponding to the capped RNA”. In addition, the “Covalent intermediate: slower migrating species on SDS-PAGE” value in assay [3] is “appearance of a slower migrating species”. For the same compound, the IC50 in assay [1] (setting [6]) amounted to 340 µM. In addition, the “Relative efficiency of RNA capping” value in assay [2] stood at 1.3.

The values above are taken from article PMC3783409, “Enzymatic Synthesis of RNAs Capped with Nucleotide Analogues Reveals the Molecular Basis for Substrate Selectivity of RNA Capping Enzyme: Impacts on RNA Metabolism” (PLoS ONE, 2013).
